According to PubChem BioAssay AID248 (DTP/NCI, 2004):
Inconclusive results and toxic doses are left out. No stated cut-off is given here; in the data, active means T/C of 150% or more; inactive means T/C below 125%.

System: L1210 leukemia ip in BDF1 mice, survival T/C
Assay: NCI In Vivo Anticancer Drug Screen. Data for tumor model L1210 Leukemia (intraperitoneal) in B6D2F1 (BDF1) mice
Details: endpoint: mean survival time, higher = longer survival
Outline: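 Tumor was transplanted into mice, which were then dosed with test compound or vehicle alone. Survival was recorded for each group, and the treated figure was expressed relative to the control figure.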

[1] = dose: 100.0 mg/kg/injection, schedule: Q01DX001 (ip), vehicle: other
[2] = dose: 200.0 mg/kg/injection, schedule: Q01DX001 (ip), vehicle: other
[3] = dose: 400.0 mg/kg/injection, schedule: Q01DX001 (ip), vehicle: other
[4] = dose: 50.0 mg/kg/injection, schedule: Q01DX009 (ip), vehicle: saline with Tween-80
[5] = dose: 100.0 mg/kg/injection, schedule: Q01DX009 (ip), vehicle: saline with Tween-80
[6] = dose: 100.0 mg/kg/injection, schedule: Q04DX003 (ip), vehicle: saline with Tween-80
[7] = dose: 200.0 mg/kg/injection, schedule: Q04DX003 (ip), vehicle: saline with Tween-80
[8] = dose: 100.0 mg/kg/injection, schedule: Q01DX009 (ip), vehicle: Klucel (hydroxypropylcellulose) (HPC)
[9] = dose: 100.0 mg/kg/injection, schedule: Q04DX003 (ip), vehicle: Klucel (hydroxypropylcellulose) (HPC)
[10] = dose: 200.0 mg/kg/injection, schedule: Q01DX009 (ip), vehicle: Klucel (hydroxypropylcellulose) (HPC)
[11] = dose: 200.0 mg/kg/injection, schedule: Q04DX003 (ip), vehicle: Klucel (hydroxypropylcellulose) (HPC)
[12] = dose: 400.0 mg/kg/injection, schedule: Q01DX009 (ip), vehicle: Klucel (hydroxypropylcellulose) (HPC)
[13] = dose: 400.0 mg/kg/injection, schedule: Q04DX003 (ip), vehicle: Klucel (hydroxypropylcellulose) (HPC)
[14] = dose: 200.0 mg/kg/injection, schedule: Q01DX009 (ip), vehicle: saline with Tween-80
[15] = dose: 400.0 mg/kg/injection, schedule: Q01DX009 (ip), vehicle: saline with Tween-80
[16] = dose: 50.0 mg/kg/injection, schedule: Q01DX009 (ip), vehicle: saline
[17] = dose: 100.0 mg/kg/injection, schedule: Q01DX001 (ip), vehicle: saline
[18] = dose: 200.0 mg/kg/injection, schedule: Q01DX001 (ip), vehicle: saline
[19] = dose: 25.0 mg/kg/injection, schedule: Q04DX003 (ip), vehicle: saline
[20] = dose: 50.0 mg/kg/injection, schedule: Q04DX003 (ip), vehicle: saline
[21] = dose: 100.0 mg/kg/injection, schedule: Q04DX003 (ip), vehicle: saline

Measured: T/C

CCn1c(/C=N/NC(N)=S)cc2ccccc21
inactive: dose: 50.0 mg/kg/injection, schedule: Q01DX001 (ip), vehicle: other 104 % of control | [1] 109 % of control | [2] 104 % of control | [3] 104 % of control

O=C(c1ccco1)c1cc(Cl)c(Cl)cc1Cl
inactive: dose: 100.0 mg/kg/injection, schedule: Q01DX001 (ip), vehicle: saline with Tween-80 100 % of control | dose: 200.0 mg/kg/injection, schedule: Q01DX001 (ip), vehicle: saline with Tween-80 95 % of control | dose: 400.0 mg/kg/injection, schedule: Q01DX001 (ip), vehicle: saline with Tween-80 98 % of control

O=C(O)c1cc(-c2cccc(C(F)(F)F)c2)nc2c(C(F)(F)F)cccc12
inactive: [4] 96 % of control | [5] 96 % of control | [6] 101 % of control | [7] 105 % of control

COC(=O)C1=C(NC(=O)Nc2ccc([N+](=O)[O-])cc2)OC(C)(C)C1c1ccc(Cl)cc1 (stereo not drawn)
inactive: dose: 100.0 mg/kg/injection, schedule: Q04DX003 (ip), vehicle: acetone 92 % of control | dose: 200.0 mg/kg/injection, schedule: Q04DX003 (ip), vehicle: acetone 97 % of control | dose: 400.0 mg/kg/injection, schedule: Q04DX003 (ip), vehicle: acetone 97 % of control

Nc1ccc(N(S(=O)(=O)c2ccccc2)S(=O)(=O)c2ccccc2)nc1
inactive: [8] 95 % of control | [9] 98 % of control | [10] 100 % of control | [11] 97 % of control | [12] 106 % of control | [13] 103 % of control

O=C(c1ccccc1)C(c1ccccc1)C(C[N+](=O)[O-])c1ccccc1 (stereo not drawn)
inactive: [5] 88 % of control | [14] 90 % of control | [15] 96 % of control

Cc1[nH]c(=O)[nH]c(=O)c1Br
inactive: dose: 37.0 mg/kg/injection, schedule: Q01DX Z (ip), vehicle: methylcellulose (MC) 91 % of control | dose: 75.0 mg/kg/injection, schedule: Q01DX Z (ip), vehicle: methylcellulose (MC) 96 % of control | dose: 150.0 mg/kg/injection, schedule: Q01DX Z (ip), vehicle: methylcellulose (MC) 86 % of control

CCCC[Si](Cl)(CCCC)CCCC
inactive: [16] 90 % of control | [17] 95 % of control | dose: 100.0 mg/kg/injection, schedule: Q01DX009 (ip), vehicle: saline 92 % of control | [18] 108 % of control | dose: 200.0 mg/kg/injection, schedule: Q01DX009 (ip), vehicle: saline 90 % of control | dose: 400.0 mg/kg/injection, schedule: Q01DX001 (ip), vehicle: saline 90 % of control

Cc1ccccc1C[P+](c1ccccc1)(c1ccccc1)c1ccccc1
inactive: dose: 12.5 mg/kg/injection, schedule: Q01DX009 (ip), vehicle: acetone 101 % of control | dose: 12.5 mg/kg/injection, schedule: Q04DX003 (ip), vehicle: saline 96 % of control | [19] 102 % of control | [20] 106 % of control

CCCCN(CCCC)P(=S)(OCC)OCC
inactive: [6] 100 % of control | [7] 102 % of control | dose: 400.0 mg/kg/injection, schedule: Q04DX003 (ip), vehicle: saline with Tween-80 104 % of control

[Cl][Dy]([Cl])[Cl]
inactive: [21] 103 % of control | dose: 200.0 mg/kg/injection, schedule: Q04DX003 (ip), vehicle: saline 114 % of control

CCNCCCCCCNCC
inactive: dose: 12.5 mg/kg/injection, schedule: Q01DX009 (ip), vehicle: saline 97 % of control | dose: 25.0 mg/kg/injection, schedule: Q01DX009 (ip), vehicle: saline 108 % of control | [19] 98 % of control | [16] 93 % of control | [20] 107 % of control | [21] 87 % of control

O=C(O)c1c(Br)c(Br)c(Br)c(Br)c1C(=O)Nc1cccc(C(F)(F)F)c1
inactive: [8] 107 % of control | [10] 108 % of control | [12] 107 % of control

Cc1ccc(NC(=O)Nc2ccc(C)cc2C)cc1
inactive: dose: 100.0 mg/kg/injection, schedule: Q01DX001 (ip), vehicle: carboxymethylcellulose (CMC) 90 % of control | dose: 200.0 mg/kg/injection, schedule: Q01DX001 (ip), vehicle: carboxymethylcellulose (CMC) 98 % of control | dose: 400.0 mg/kg/injection, schedule: Q01DX001 (ip), vehicle: carboxymethylcellulose (CMC) 92 % of control

CC(C)=CCC(CCN(C)C)(C(N)=O)c1ccc2ccccc2c1 (stereo not drawn)
inactive: dose: 12.5 mg/kg/injection, schedule: Q01DX009 (ip), vehicle: Klucel (hydroxypropylcellulose) (HPC) 93 % of control | dose: 25.0 mg/kg/injection, schedule: Q01DX009 (ip), vehicle: Klucel (hydroxypropylcellulose) (HPC) 86 % of control | dose: 50.0 mg/kg/injection, schedule: Q01DX009 (ip), vehicle: Klucel (hydroxypropylcellulose) (HPC) 91 % of control

CC(C)=CCCC1(C)C=Cc2c(c(C)cc3c2[nH]c2ccccc23)O1 (stereo not drawn)
inactive: dose: 25.0 mg/kg/injection, schedule: Q04DX002 (ip), vehicle: gum acacia 96 % of control | dose: 50.0 mg/kg/injection, schedule: Q04DX002 (ip), vehicle: gum acacia 89 % of control | dose: 100.0 mg/kg/injection, schedule: Q04DX002 (ip), vehicle: gum acacia 99 % of control

Cc1no[n+]([O-])c1-c1nc(SCC(=O)NN)n[nH]1
inactive: dose: 25.0 mg/kg/injection, schedule: Q04DX002 (ip), vehicle: Klucel (hydroxypropylcellulose) (HPC) 91 % of control | dose: 50.0 mg/kg/injection, schedule: Q04DX002 (ip), vehicle: Klucel (hydroxypropylcellulose) (HPC) 95 % of control | dose: 100.0 mg/kg/injection, schedule: Q04DX002 (ip), vehicle: Klucel (hydroxypropylcellulose) (HPC) 102 % of control

C=CCC/C(=C/C(=O)OCC)OCC=C
inactive: [4] 107 % of control | [5] 114 % of control

O=[N+]([O-])c1ccc2cnn(CSP(=S)(c3ccccc3)c3ccccc3)c2c1
inactive: [1] 93 % of control | [2] 101 % of control | [3] 101 % of control

Cc1cccc(NC(=O)c2ccc(Cl)cc2Cl)c1C
inactive: [8] 102 % of control | [9] 101 % of control | [10] 91 % of control | [11] 90 % of control | [12] 91 % of control | [13] 93 % of control

Nc1nc(N)c(CCCOc2ccc(NC(=O)CCCc3ccc(NC(=O)CBr)cc3)cc2)c(N)n1
inactive: [9] 102 % of control | [11] 109 % of control | [13] 102 % of control

COc1cccc(CNc2cccc(Cl)c2Cl)c1OC
inactive: [5] 103 % of control | dose: 100.0 mg/kg/injection, schedule: Q04DX003 (ip), vehicle: other 102 % of control | [14] 94 % of control | dose: 200.0 mg/kg/injection, schedule: Q04DX003 (ip), vehicle: other 96 % of control | [15] 109 % of control | dose: 400.0 mg/kg/injection, schedule: Q04DX003 (ip), vehicle: other 113 % of control

COc1ccccc1-n1c(=O)c(N=Nc2ccccc2)c(O)n(-c2ccccc2Cl)c1=S
inactive: dose: 50.0 mg/kg/injection, schedule: Q04DX003 (ip), vehicle: saline with Tween-80 94 % of control | [6] 94 % of control

N=C(N)CCN
inactive: [17] 98 % of control | [18] 102 % of control

C=C(C)C#CCN(CCO)C(C)C
inactive: dose: 75.0 mg/kg/injection, schedule: Q01DX001 (ip), vehicle: other 96 % of control | dose: 150.0 mg/kg/injection, schedule: Q01DX001 (ip), vehicle: other 96 % of control

Cc1ccc(NC(=O)OCCOc2cc(C)c(Cl)c(C)c2)cc1[N+](=O)[O-]
inactive: [4] 87 % of control | [5] 101 % of control | [14] 90 % of control

CN(C)N=Nc1cccc(C(=O)O)c1
inactive: dose: 50.0 mg/kg/injection, schedule: Q04DX002 (ip), vehicle: other 106 % of control | dose: 100.0 mg/kg/injection, schedule: Q04DX002 (ip), vehicle: other 113 % of control | dose: 200.0 mg/kg/injection, schedule: Q04DX002 (ip), vehicle: other 113 % of control | dose: 400.0 mg/kg/injection, schedule: Q04DX002 (ip), vehicle: other 124 % of control

CCOC(=O)c1ccc(=O)n(C(C)C)c1
inactive: [8] 104 % of control | [10] 98 % of control | [12] 102 % of control
